Assay results published in US20230357242A1, “COMPOUND AS AKT KINASE INHIBITOR” (CHIA TAI TIANQING PHARMACEUTICAL GROUP CO., LTD., priority 2020, published 2023).
Where two headings read alike, the source gives them in different places.

Experiments:
[1] = Pharmacokinetic evaluation in mice; assay type: in vivo; set-up: Cl: unit not given here; conditions: ICR mice; for AUC(0-inf) / AUC(0-t) / Cmax / Tmax / bioavailability / MRT last / Vd: mouse, plasma; for bioavailability: IG 10 mg/kg vs IV 1 mg/kg, read-out: Absolute bioavailability F %; for MRT last: read-out: MRT(0-t)
Protocol: ICR mice, weight 18-22 g, after adaption for 3-5 days, were randomly divided into 4 groups of 9 mice, each group was intragastrically (IG) administered with compound 28 or compound 30 at a dose of 10 mg/kg, or intravenously (IV) administered with compound 28 or compound 30 at a dose of 1 mg/kg.
The animals to be tested (ICR mice) were fasted for 12 h before administration and food was provided 4 h after administration, and water was freely drunk before and after the experiment and during the experiment.
After intragastric administration, about 0.1 mL of blood was taken from eye sockets at 15 min, 30 min, 1 h, 2 h, 3 h, 4 h, 6 h, 8 h, 10 h, and 24 h; after intravenous injection, about 0.1 mL of blood was taken from eye sockets at 5 min, 10 min, 30 min, 1 h, 2 h, 4 h, 6 h, 8 h, 10 h, and 24 h; each mouse was collected at 3-4 time points and 3 mice were collected at each time point, whole blood was collected, placed in centrifuge tubes containing EDTA-K2, and stored at 4° C. within 1 h, and the plasma was separated off by centrifugation at 4° C. and 4000 rpm for 10 min. All the plasma samples were collected and immediately stored at −20° C. for testing. 30 μL of the plasma sample to be tested and a standard curve sample were pipetted and added with 300 μL of acetonitrile solution containing an internal standard (20 ng/mL diazepam), shaken and mixed well for 5 min, and centrifuged at 13,000 rpm for 10 min. 80 μL of supernatant was taken and diluted with 80 μL of ultrapure water. After being mixed well, 2 μL of the resulting sample was taken for liquid chromatography-mass determination, and a chromatogram was recorded.
Oral and intravenous exposure of the compound of the present application was evaluated by in vivo pharmacokinetic experiment in mice.

LNcap cells = test: Inhibitory effect on proliferation of LNcap cells (CCK-8, 72 h); assay type: cell-based; conditions: Homo sapiens, LNcap cells, CCK-8, read-out: LNcap cells IC50
Protocol: A dish of LNcap cells (human prostate cancer cells with PTEN deficiency) growing at log phase and in good conditions were taken and digested for 3 min by using 1 mL of pancreatin, then the mixture was added with 4 mL of complete culture medium to terminate digestion, and the cells were added to a centrifuge tube. 20 μL of cells were taken and counted, the required number of cells (mL) was pipetted and centrifuged at 1200 rpm for 5 min, the supernatant was discarded, and an appropriate amount of plating medium (RPMI medium+5% FBS+1% sodium pyruvate+1% glutamine) was added to adjust the cell density to 3×10^4 cells/mL. The cells were seeded on a 96-well plate at 100 μL/well using a multi-channel pipette and cultured in a cell incubator at 37° C., 5% CO2 and saturated humidity. After incubation overnight, compounds were loaded using a nanoliter pipettor, 2 duplicate wells were set for each concentration, and cells without compound were used as negative controls. After 72 h, CCK-8 was added at 10 μL/well for incubation for 4 h, then absorbance was measured at 450 nm with an Envision plate reader, and inhibition rate was calculated. Inhibition rate (%)=(mean value of negative control group−mean value of experimental group)/(mean value of negative control group−mean value of blank group)×100%. A dose-response curve was fitted by four-parameter analysis, with the logarithm of compound concentration as abscissa and inhibition rate as ordinate, so that IC50 was calculated.

AKT1 (S473) = biological target: T1, AKT1 (S473) (Homo sapiens, UniProt P31749); test: Inhibitory effect on phosphorylation of LNcap cells AKT1 (S473); assay type: cell-based; conditions: 1 h incubation
T1 construct: endogenous in cells; host or cells: LNcap cells
Protocol: LNcap cells AKT1 (S473) growing at log phase were taken, digested with 1 mL of pancreatin for 3 min, and added with 4 mL of complete medium to terminate digestion. The cells were added to a centrifuge tube. 20 μL of cells were taken and counted, the required number of cells (mL) was taken and centrifuged at 1200 rpm for 5 min, and a plating medium (2% FBS+phenol-free red 1640 base medium+1% sodium pyruvate+1% glutamine) was added to adjust the cell density to about 1×10E6 cells/mL. The cells were plated (96 wells) at the above cell density (100 μL/well), and cultured in a cell incubator at 37° C., 5% CO2 overnight; the next day, according to the plate distribution, the corresponding compound was sprayed using a nanoliter pipettor and incubated for 1 h at 37° C. in a cell incubator containing 5% CO2; the supernatant was discarded, and the plate was added with 40 μL of lysis buffer (1×) containing blocking buffer and incubated by shaking at room temperature for 30 min. After the mixture was mixed, 16 μL of lysate was transferred to another 384-well small-volume white plate. The plate was added with 4 μL of pre-mixed antibody (v/v) in assay buffer, covered, centrifuged to mix well, and incubated overnight at room temperature. The 665 nm/620 nm signal value was detected using a PE Envision multi-functional microplate reader, and IC50 was calculated by four-parameter fitting.

T1 sequence (P31749 whole entry): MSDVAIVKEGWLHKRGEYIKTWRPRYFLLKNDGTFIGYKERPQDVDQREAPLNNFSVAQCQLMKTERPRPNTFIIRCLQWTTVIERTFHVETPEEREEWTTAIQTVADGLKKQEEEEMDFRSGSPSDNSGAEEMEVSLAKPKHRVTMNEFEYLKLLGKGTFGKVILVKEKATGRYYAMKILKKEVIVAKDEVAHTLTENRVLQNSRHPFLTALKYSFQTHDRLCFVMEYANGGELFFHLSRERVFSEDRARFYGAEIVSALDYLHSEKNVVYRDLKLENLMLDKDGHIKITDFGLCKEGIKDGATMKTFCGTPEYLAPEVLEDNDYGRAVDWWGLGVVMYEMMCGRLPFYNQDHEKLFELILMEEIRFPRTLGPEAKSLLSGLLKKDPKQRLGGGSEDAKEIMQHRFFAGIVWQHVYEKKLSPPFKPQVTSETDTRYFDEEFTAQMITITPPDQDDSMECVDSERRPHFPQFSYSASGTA

Row | t1/2z ([1]; IG 10 mg/kg) [h] | Cl ([1]; IV 1 mg/kg) | t1/2z ([1]; IV 1 mg/kg) [h] | AUC(0-inf) ([1]; po, IG 10 mg/kg) [ng·h/mL] | AUC(0-t) ([1]; po, IG 10 mg/kg) [ng·h/mL] | Cmax ([1]; po, IG 10 mg/kg) [ng/mL] | Tmax ([1]; po, IG 10 mg/kg) [h] | bioavailability ([1]; po) [%] | MRT last ([1]; po, IG 10 mg/kg) [h] | AUC(0-inf) ([1]; IV 1 mg/kg) [ng·h/mL] | AUC(0-t) ([1]; IV 1 mg/kg) [ng·h/mL] | Vd ([1]; IV 1 mg/kg) [L/kg] | MRT last ([1]; IV 1 mg/kg) [h] | IC50 (LNcap cells) [nM] | IC50 (AKT1 (S473)) [nM] | Compound
1 | 2.06 | 0.23 | 1.159 | 14500 | 14500 | 4020 | 0.25 | 34.3 | 3.95 | 4340 | 4240 | 5.42 | 1.18 | 1.7 | 7.7 | CN1CC2(CCN(c3cccc(-c4ccc5nc(-c6cccnc6N)n(-c6ccc(C7(N)CCC7)cc6)c5n4)c3F)CC2)CC1=O [Compound 45]
2 | 3.61 | 0.206 | 1.34 | 25100 | 25000 | 4960 | 2 | 51.7 | 3.58 | 4840 | 4840 | 0.398 | 0.817 | 1.7 | 12 | CC(=O)N1CC2(CCN(c3cccc(-c4ccc5nc(-c6cccnc6N)n(-c6ccc(C7(N)CCC7)cc6)c5n4)c3F)CC2)C1 [Compound 44]
